Assay results: patent US20030186941A1, “Cyclopenteneone derivatives” (priority 1999, published 2003)
Like-named read-outs stand apart in the source and are kept apart here.

Assays:
[1] = anaesthetized rat, intravenous infusion, doses from 30 μg/kg/min; cited from earlier work
NF-κB [2] = biological target: T1, NF-κB (Homo sapiens, UniProt Q04206); experiment: EMSA of NF-κB DNA-binding activity in TPA-stimulated Jurkat T cells; type: cell-based; parameters: endogenous in cells; host or cells: Jurkat T cells (human lymphoblastoid), TPA-stimulated; whole-cell extracts; settings: test compound 1 hour then TPA 25 ng/ml, extracts after 3 hours
Procedure: Methods: Human lymphoblastoid Jurkat T cells were grown at 37° C. in a 5% CO2 atmosphere in RPM1 1640 medium (GIBCO BRL, Gaithersburg, Md.) supplemented with 10% fetal calf serum (FCS, Hyclone Europe Ltd, UK) 2 mM glutamine and antibiotics according to the method described by A. Rossi et al. (Proc. Natl. Acad. Sci. USA 94: 746-750, 1997). The test compounds were stored as a 100% ethanolic stock solution (100 mM) or in DMSO (100 mM and diluted to the appropriate concentration in culture medium at the time of use. Cells were treated with different concentrations of test compound for 1 hour and then stimulated with 12-O-tetradecanoylphorbol-13-acetate (TPA, 25 ng/ml), which is a strong inducer of NF-κB. Control cells received an equal amount of control diluent. After 3 hours whole-cell extracts were prepared and subjected to analysis of DNA-binding activity by EMSA (Electrophoretic Mobility Shift Assay) for detection of HSF or NF-κB activation, according to the method described by A. Rossi et al. (Proc. Natl. Acad. Sci. USA 94: 746-750, 1997).
Specificity of protein-DNA complexes was verified by immunoreactivity with polyclonal antibodies specific for p65 (Rel A) or for HSF-1, for NF-κB and HSF respectively. Quantitative evaluation of NF-κB- and HSF-DNA complex formation was determined by Molecular Dynamics Phosphorlmager (MDP) analysis and was expressed in arbitrary units, as described in A. Rossi et al.(J. Biol. Chem. 273: 16446-16452, 1998). The results from representative experiments are shown in FIGS. 1(b), 2(b), 3(b), 4(b), 5(b), 6 and 7(b) for compounds CTC-31, CTC-32, CTC-33, CTC-34, CTC-35, CTC-36 and CTC-45, as identified above.

[3] = system: parainfluenza Sendai virus (SV); experiment: microbe, parasite or virus in culture; type: cell-based; settings: for inhibition of Sendai virus replication: 37RC cells, virus yield at 24 hours after infection; for IC50: Respirovirus muris
37RC cells [4] = experiment: Toxicity to uninfected 37RC cells, determined visually by microscopy; type: cell-based, Monkey
HSF1 = biological target: T2, HSF1 (Homo sapiens, UniProt Q00613); settings: at a concentration of 125-500 μM; cited from earlier work
T2 sequence (Q00613 1-529): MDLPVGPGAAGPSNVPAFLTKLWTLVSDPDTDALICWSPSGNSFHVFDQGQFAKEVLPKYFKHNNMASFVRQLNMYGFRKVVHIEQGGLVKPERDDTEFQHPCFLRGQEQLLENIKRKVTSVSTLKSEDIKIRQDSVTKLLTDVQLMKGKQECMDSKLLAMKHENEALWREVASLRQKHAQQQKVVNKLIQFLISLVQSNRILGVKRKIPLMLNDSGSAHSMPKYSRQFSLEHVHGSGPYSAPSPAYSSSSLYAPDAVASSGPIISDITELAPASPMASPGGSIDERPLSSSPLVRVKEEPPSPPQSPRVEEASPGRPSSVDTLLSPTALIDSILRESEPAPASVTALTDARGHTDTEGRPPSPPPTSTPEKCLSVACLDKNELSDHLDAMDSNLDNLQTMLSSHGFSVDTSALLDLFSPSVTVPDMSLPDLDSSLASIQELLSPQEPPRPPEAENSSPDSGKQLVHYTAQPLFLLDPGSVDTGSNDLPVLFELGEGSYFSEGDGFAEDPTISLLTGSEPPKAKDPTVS

NF-κB [5] = biological target: T1, NF-κB; settings: at a concentration of 125-500 μM; cited from earlier work
[6] = system: Herpes simplex virus type one (HSV-1), strain F; experiment: HSV-1 replication in Hep-2 cells, virus titre by CPE 50% assay on VERO cells; type: cell-based, Herpes simplex virus type 1; settings: Human alphaherpesvirus 1, HEp-2, 24 h, read-out: ID50 (50% inhibitory dose/concentration), HSV-1 virus replication
Procedure: Methods: Human Hep-2 laryngeal carcinoma cells and monkey VERO cells were grown at 37° C. under the conditions described in Example 9 for T cells. Cell viability was determined by dye exclusion technique or by 3-(4,5-dimethylthiazol-2-yl)-2,5-diphenyl-tetrazolium bromide (MTT, Sigma Chemical Co.) to MTT formazan assay, as described by F. Denizot and R. Lang (J. Immunol. Methods 89: 271-277, 1986). Herpes simplex virus type one (HSV-1), strain F grown in VERO cells, was used at a multiplicity of infection of 10 plaque forming units (PFU) per cell. Confluent Hep-2 cell monolayers were infected with HSV-1 for 1 h at 37° C. After this time, virus inocula were removed and cells incubated in RPMI 1640 medium containing 2% FCS. Different concentrations of CTC-35 were added to the culture after the 1 h adsorption period, and maintained in the medium for the duration of the experiment. […] HSV-1 virus titres were determined 24 hours after infection by cytopathic effect 50% (CPE 50%) assay on confluent VERO cells monolayers in 96-well tissue culture plates (six dilutions for each sample, eight wells for each dilution), as described by F. Pica et al. (Antiviral Res. 20: 193-208, 1993). The dilution that gives 50% cytopathic effect were determined by the interpolating procedure of Reed and Muensch, as described by E. Rodriguez-Boulan Methods Enzymol. 98: 486-501, 1983).

A549 cells = experiment: MTT cell viability assay, uninfected A549 cells; type: cell-based, Human; settings: 24 hours
Procedure: (§1) Cell viability was determined by the 3-(4,5-dimethylthiazol-2-yl)-2,5-diphenyltetrazolium bromide MIT) assay. Uninfected A549 (7.5×10^4 cells/well in 96 well plates) or 37RC cells (2.5×10^4 cells/well in 96 well plates) were treated with different concentrations of CTC35 or ethanol diluent for 24 hours. After this time, […] of a 0.5% MIT solution in PBS was added to the monolayers and the mixture was incubated for 2 h at 37° C. Reduced MTT (formazan) was extracted from cells by adding 100 μl of acidic isopropanol containing 10% Triton X-100, and formazan absorbance was measured in an ELISA microplate reader at two different wavelengths (540 and 690 nm).

37RC cells [7] = experiment: MTT cell viability assay, uninfected 37RC cells; type: cell-based, Monkey; settings: 24 hours
Procedure: as §1

[8] = Sendai virus in 37RC cells, at 24 hours, read-out: ID50 (the source's name)

T1 sequence (Q04206 whole entry): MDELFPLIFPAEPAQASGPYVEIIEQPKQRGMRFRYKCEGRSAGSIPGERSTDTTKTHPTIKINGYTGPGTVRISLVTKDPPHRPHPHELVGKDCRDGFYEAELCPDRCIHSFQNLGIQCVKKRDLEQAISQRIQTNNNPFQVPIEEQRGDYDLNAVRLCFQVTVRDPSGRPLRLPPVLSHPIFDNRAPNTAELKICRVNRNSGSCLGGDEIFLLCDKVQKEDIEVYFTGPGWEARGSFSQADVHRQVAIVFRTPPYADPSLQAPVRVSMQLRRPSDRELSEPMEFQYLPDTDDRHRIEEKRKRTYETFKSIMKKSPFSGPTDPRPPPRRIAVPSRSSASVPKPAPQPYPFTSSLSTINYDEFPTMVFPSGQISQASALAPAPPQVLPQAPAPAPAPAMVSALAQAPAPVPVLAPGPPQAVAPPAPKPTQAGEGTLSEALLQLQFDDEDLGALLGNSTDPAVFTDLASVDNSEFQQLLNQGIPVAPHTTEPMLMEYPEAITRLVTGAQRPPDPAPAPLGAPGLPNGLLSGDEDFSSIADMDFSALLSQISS
T1 sequence (P19838 1-433 partner limits assumed): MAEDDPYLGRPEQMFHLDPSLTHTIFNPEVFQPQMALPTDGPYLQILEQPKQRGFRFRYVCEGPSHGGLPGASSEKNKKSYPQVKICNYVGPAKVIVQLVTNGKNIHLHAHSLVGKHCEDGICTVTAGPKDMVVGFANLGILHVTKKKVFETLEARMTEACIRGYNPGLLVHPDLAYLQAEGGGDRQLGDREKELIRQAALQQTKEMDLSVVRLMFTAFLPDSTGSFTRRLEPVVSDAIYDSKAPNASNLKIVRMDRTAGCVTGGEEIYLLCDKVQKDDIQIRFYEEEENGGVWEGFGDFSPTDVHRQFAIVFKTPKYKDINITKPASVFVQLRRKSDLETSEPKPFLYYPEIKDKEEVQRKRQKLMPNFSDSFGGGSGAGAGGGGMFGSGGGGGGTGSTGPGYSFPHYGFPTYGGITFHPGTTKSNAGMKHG

| SMILES | inhibition of NF-κB (NF-κB-DNA complex formation, EMSA) (NF-κB [2]) | inhibition of Sendai virus replication [3] | TD100 (concentration 100% toxic to uninfected cells) (37RC cells [4]) | IC50 ([3]; 24 h, read-out: ID50) | also measured |
| --- | --- | --- | --- | --- | --- |
| CCCCC[C@H](O)/C=C/[C@H]1C=CC(=O)[C@@H]1CCCCCCC(=O)O [Prostaglandin A1] | – | – | – | – | effect on blood pressure [1]: dose-dependant falls in blood pressure |
| CCCCC[C@H](O)/C=C/[C@H]1[C@H](O)CC(=O)[C@@H]1CCCCCCC(=O)O [Prostaglandin E1] | – | – | – | – | effect on blood pressure [1]: dose-dependant falls in blood pressure |
| CC(C)/C=C1/C(=O)C=CC1O[Si](C)(C)C(C)(C)C (stereo not drawn) [CTC-36] | potent inhibitors of NF-κB | – | – | – | – |
| CC(C)(C)[Si](C)(C)OC1C=CC(=O)/C1=C/c1ccccc1 (stereo not drawn) [CTC-33, 5-benzylidene-4-[(tert-butyldimethylsilyl)oxy]-2-cyclopentene-1-one] | potent inhibitors of NF-κB | potent inhibitors of Sendai virus replication | 50 µM | – | IC50 [3, 8]: 1500 nM |
| O=C1C=CCC1 [cyclopent-2-en-1-one] | – | – | – | – | activation of HSF1 (HSF1): able to activate HSF1; block of NF-κB activation by chemical or physiological inducers (NF-κB [5]): able to block NF-κB activation |
| CC(C)/C=C1\C(=O)C=CC1O[Si](C)(C)C(C)(C)C (stereo not drawn) [CTC-35] | potent inhibitors of NF-κB | potent inhibitors of Sendai virus replication | 50 µM | – | IC50 [6]: 1510 nM; IC50 [3, 8]: 400 nM; LD50 (Lethal dose/concentration 50%) (A549 cells): 90 µM; LD50 (Lethal dose/concentration 50%) (37RC cells [7]): 30 µM |
| CC/C=C1/C(=O)C=CC1O[Si](C)(C)C(C)(C)C (stereo not drawn) [CTC-31, 4-tert.butyldimethylsilyloxy-5-(prop-1-ene)-cyclopent-2-ene-1-one] | potent inhibitors of NF-κB | potent inhibitors of Sendai virus replication | 50 µM | 1000 nM | – |
| CCCCCCC/C=C1/C(=O)C=CC1O[Si](C)(C)C(C)(C)C (stereo not drawn) [CTC-34, 4-tert.butyldimethylsilyloxy-5-(oct-1-ene)-cyclopent-2-ene-1-one] | potent inhibitors of NF-κB | potent inhibitors of Sendai virus replication | 50 µM | 3000 nM | – |
| CC(C)(C)[Si](C)(C)OC1C=CC(=O)/C1=C/c1ccccn1 (stereo not drawn) [CTC-32, 4-tert.butyldimethylsilyloxy-5-[methylene-(2-pyridyl)]-cyclopent-2-ene-1-one] | – | – | 10 µM | 2000 nM | – |
| CCC/C=C1/C(=O)C=CC1O[Si](C)(C)C(C)(C)C (stereo not drawn) [CTC-45, butyldimethylsilyloxy-5-[but-1-ene]-cyclopent-2-ene-1-one] | potent inhibitors of NF-κB | potent inhibitors of Sendai virus replication | 50 µM | 3000 nM | – |
